Source: ChEMBL document CHEMBL1201862, “PubChem BioAssay data set” (2004)
Calls of active or inactive are those of the source.

What was measured:
[1] = molecular target: T1, Sphingosine 1-phosphate receptor 4 (Homo sapiens, UniProt O95977); assay: Late stage fluorescence dose response cell-based screening assay for antagonists of the Sphingosine 1-Phosphate Receptor 4 (S1P4). [Related pubchem assays: 1524 (Confirmation screen (S1P4 antagonists).), 1510 (Primary screen (S1P4 antagonists).), 1853 (Summary AID (S1P4 antagonists).), 1692 (Dose response screen (S1P4 antagonists).)]; assay type: functional
T1 sequence (O95977 whole entry): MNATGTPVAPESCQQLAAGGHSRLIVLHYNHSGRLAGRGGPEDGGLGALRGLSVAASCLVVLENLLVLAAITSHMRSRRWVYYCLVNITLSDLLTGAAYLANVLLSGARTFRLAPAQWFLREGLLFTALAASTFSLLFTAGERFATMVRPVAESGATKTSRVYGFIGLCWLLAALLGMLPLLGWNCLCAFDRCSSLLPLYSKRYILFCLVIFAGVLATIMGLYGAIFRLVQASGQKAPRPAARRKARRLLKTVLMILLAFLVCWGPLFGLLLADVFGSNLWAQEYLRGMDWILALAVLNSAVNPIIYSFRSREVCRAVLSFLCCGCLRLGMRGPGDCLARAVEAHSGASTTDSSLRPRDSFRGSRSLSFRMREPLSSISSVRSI

[2] = molecular target: T1, Sphingosine 1-phosphate receptor 4; assay: Fluorescence dose response cell-based high throughput screening assay for antagonists of the Sphingosine 1-Phosphate Receptor 4 (S1P4). [Related pubchem assays: 1524 (Confirmation in triplicates.), 1510 (Primary screen.)]; assay type: functional
[3] = molecular target: Sphingosine 1-phosphate receptor 1 (Homo sapiens, UniProt P21453); assay type: functional;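 further: Tango beta-arrestin reporter U2OS cells stimulated with S1P near its EC80; inhibitor potency meaning antagonism of receptor activation by the natural agonist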
Sphingosine 1-phosphate receptor 1, sequence (P21453 whole entry): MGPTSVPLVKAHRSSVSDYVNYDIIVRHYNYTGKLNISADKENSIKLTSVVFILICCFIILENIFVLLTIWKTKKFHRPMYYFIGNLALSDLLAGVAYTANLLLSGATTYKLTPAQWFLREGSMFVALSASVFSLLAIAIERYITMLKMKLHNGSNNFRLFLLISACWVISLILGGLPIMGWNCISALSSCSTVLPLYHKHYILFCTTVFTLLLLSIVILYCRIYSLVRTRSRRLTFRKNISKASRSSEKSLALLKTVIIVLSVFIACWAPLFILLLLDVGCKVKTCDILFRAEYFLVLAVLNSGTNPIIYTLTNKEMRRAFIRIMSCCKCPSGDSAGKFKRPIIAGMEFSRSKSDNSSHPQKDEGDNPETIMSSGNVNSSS

INS1 = assay: INS-1E survival protection against cytokine death – cell-based, luminescence, retest, dose response (AID 449756); assay type: functional; conditions: Rattus norvegicus;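 further: cell death triggered by IL-1 beta plus TNF-alpha plus IFN-gamma mixture; protective hits raise ATP signal compared with cytokine alone wells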
[4] = viability of uninfected HEp-2 cells – cell-based, HTS, cytotoxicity control for RSV inhibitor project, dose response (AID 2410); assay type: functional; conditions: human respiratory syncytial virus
[5] = antiviral protection against BTV-induced cell death – arbovirus, BSR cells, confirmation (AID 1250); assay type: functional;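 further: protection from viral cytopathic effect measured as cell viability by ATP luminescence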
[6] = molecular target: Luciferin 4-monooxygenase (Photinus pyralis, UniProt P08659); assay: Counter Screen for Luciferase-based Assay Positives. [Related pubchem assays: 620, 618, 411 ]
Luciferin 4-monooxygenase, sequence (P08659 whole entry): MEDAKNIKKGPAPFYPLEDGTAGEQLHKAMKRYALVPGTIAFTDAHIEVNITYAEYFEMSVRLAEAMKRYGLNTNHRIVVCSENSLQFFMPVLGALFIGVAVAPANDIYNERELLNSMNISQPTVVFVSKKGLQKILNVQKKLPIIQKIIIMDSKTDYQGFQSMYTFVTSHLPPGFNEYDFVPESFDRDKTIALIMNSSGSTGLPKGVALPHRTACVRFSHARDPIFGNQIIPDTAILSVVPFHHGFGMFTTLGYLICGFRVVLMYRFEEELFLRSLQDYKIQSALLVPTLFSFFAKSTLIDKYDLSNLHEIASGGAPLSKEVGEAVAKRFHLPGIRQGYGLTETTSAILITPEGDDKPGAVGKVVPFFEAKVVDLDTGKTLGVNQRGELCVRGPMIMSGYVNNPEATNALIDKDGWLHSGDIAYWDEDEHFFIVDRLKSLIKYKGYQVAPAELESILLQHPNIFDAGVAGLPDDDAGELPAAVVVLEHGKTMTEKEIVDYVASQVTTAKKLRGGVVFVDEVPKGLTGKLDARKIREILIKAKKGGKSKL

HT-1080 = assay: HT1080 cell viability loss – fluorescence readout (AID 620); assay type: functional, cell-based; conditions: Homo sapiens
Caspase-3 = molecular target: T2, Caspase-3 (Homo sapiens, UniProt P42574); assay type: functional;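 further: Dose-response selectivity test against caspase-3 for candidate inhibitors of sentrin-specific proteases (SENPs)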
T2 sequence (P42574 whole entry): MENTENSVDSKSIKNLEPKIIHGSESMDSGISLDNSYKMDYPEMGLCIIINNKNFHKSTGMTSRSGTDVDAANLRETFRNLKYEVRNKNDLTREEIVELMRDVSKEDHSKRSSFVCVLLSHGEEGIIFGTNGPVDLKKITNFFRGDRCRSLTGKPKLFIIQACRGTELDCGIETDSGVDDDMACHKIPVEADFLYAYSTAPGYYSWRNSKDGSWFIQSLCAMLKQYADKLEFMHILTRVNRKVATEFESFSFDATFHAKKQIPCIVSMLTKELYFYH

[7] = molecular target: T3, Sentrin-specific protease 7 (Homo sapiens, UniProt Q9BQF6); assay type: functional;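 further: Luminescence-based dose-response confirmation of ultra-high-throughput screening hits, measuring inhibition of SENP7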
T3 sequence (Q9BQF6 whole entry): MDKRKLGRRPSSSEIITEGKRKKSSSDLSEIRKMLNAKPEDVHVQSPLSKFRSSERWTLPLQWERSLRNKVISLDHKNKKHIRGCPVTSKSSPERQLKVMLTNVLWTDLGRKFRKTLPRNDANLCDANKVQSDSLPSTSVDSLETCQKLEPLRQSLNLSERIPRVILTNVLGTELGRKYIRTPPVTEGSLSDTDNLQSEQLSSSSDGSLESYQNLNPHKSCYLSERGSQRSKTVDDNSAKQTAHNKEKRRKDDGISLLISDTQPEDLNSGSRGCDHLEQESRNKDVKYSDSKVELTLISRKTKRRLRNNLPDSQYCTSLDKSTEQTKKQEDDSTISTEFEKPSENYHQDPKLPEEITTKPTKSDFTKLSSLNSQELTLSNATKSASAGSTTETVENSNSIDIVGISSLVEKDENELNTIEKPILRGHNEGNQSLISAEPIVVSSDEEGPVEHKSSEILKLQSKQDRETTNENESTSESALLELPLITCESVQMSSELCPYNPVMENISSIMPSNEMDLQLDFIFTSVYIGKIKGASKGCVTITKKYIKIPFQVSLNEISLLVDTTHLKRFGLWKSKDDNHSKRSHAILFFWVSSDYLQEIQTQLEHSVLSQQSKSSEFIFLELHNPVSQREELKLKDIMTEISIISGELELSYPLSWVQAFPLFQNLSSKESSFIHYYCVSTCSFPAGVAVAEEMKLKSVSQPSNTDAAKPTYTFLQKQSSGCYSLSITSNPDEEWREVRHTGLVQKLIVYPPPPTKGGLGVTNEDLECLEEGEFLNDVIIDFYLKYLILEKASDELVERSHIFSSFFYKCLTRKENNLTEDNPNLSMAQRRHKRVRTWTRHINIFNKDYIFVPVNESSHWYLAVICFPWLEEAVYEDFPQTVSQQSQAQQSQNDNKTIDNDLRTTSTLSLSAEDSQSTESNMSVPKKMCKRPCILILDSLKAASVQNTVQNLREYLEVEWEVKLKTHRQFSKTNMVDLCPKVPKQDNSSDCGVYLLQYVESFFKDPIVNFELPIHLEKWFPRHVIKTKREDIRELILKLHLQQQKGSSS

[8] = molecular target: T4, Sentrin-specific protease 6 (Homo sapiens, UniProt Q9GZR1); assay type: functional;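 further: Luminescence-based dose-response confirmatory assay of SENP6 inhibition, following up an ultra-high-throughput screen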
T4 sequence (Q9GZR1 whole entry): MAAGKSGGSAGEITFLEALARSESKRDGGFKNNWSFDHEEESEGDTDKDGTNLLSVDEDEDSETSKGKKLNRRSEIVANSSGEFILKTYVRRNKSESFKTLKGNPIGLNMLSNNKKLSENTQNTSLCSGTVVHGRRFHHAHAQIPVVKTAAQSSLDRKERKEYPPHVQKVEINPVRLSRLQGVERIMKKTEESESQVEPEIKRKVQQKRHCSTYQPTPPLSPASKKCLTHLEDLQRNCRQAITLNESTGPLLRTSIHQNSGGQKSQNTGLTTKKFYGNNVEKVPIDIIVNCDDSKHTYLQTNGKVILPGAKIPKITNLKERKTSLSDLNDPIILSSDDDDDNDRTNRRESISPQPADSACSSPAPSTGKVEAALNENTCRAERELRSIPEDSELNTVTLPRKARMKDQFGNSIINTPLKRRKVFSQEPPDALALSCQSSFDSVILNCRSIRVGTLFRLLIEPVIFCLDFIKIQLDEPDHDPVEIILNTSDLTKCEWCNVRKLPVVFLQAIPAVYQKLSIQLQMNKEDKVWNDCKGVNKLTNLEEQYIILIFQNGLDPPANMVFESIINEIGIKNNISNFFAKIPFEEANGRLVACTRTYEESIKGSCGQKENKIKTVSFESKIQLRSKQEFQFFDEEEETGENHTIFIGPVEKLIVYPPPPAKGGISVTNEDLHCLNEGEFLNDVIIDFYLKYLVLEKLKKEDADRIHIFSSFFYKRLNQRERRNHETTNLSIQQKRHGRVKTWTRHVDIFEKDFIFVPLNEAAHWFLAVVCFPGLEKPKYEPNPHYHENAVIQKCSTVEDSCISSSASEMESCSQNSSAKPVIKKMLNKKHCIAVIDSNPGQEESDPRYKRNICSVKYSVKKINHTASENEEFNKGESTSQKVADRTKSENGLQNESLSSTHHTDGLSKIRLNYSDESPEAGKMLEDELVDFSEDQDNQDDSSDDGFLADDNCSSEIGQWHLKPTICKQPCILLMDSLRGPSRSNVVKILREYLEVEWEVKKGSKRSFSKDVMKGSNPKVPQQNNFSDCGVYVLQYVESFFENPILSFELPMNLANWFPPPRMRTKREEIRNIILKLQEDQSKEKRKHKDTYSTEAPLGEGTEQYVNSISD

[9] = molecular target: T5, Sentrin-specific protease 8 (Homo sapiens, UniProt Q96LD8); assay type: functional;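 further: luminescence read-out of SENP8 inhibition, dose-response confirmation following an ultra-high-throughput screen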
T5 sequence (Q96LD8 whole entry): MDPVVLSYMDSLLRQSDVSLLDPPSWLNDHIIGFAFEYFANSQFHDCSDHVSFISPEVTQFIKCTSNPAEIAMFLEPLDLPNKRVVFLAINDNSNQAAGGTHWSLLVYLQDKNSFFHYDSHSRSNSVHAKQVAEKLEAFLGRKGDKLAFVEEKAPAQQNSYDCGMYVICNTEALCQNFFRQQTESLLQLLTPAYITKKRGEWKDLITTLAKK

[10] = molecular target: T6, Oxysterols receptor LXR-beta (Homo sapiens, UniProt P55055); assay type: functional, cell-based;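 further: Cell-based luminescence dose-response assay of agonist activity at LXR, run as a confirmatory counterscreen to a daf-12 agonist screen; HEK293 cells with Gal4-LXR fusion and GAL4-driven luciferase reporter; agonist potency from rising luciferase signal of a Gal4-LXR reporter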
T6 sequence (P55055 whole entry): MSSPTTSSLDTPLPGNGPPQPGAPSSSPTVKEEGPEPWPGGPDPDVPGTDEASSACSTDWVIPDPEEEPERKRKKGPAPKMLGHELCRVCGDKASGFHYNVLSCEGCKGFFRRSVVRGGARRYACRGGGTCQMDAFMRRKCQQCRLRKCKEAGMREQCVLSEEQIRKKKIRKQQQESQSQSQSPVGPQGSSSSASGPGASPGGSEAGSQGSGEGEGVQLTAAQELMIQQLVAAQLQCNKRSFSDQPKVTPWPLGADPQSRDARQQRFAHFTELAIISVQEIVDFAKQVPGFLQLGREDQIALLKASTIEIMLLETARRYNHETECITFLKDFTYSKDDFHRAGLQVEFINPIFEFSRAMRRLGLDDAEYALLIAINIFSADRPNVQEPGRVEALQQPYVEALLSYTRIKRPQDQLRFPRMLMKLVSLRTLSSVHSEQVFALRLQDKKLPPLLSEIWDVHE

CCOC(=O)C(=Cc1ccc(Br)cc1)C(=O)OCC
IC50 [1]: 0.887 µM (active) | IC50 [2]: 0.419 µM (active) | IC50 [3]: 9.77 µM (active) | AC50 (INS1): 25 µM (active)

COc1ccc(-c2cc(-c3ccc(OC)c(OC)c3)[nH]n2)c(O)c1
CC50 [4]: 46.3 µM (active) | IC50 [5]: 45.6 µM (active)

COc1cc([N+](=O)[O-])ccc1N/C=C/C(=O)c1cccs1
EC50 [6]: 4.17 µM (active) | EC50 (HT-1080): > 50 µM (not active) | IC50 (Caspase-3): 1.53 µM (active) | IC50 [7]: 0.863 µM (active) | IC50 [8]: 1.15 µM (active) | IC50 [9]: 2.62 µM (active) | EC50 [10]: > 67.5 µM (inactive) | EC50 (cells): > 67.5 µM (inactive)
